In US10322112B2, “Compound combinations for attenuation of bacterial virulence” (priority 2016, dated 2019):
pIC50: −log10 of the molar value. Where “and” joins values, the source holds several entries; their conditions need not be identical. Identical values can stand only once.

Key:
RhlR [1] = molecular target: T1, RhlR (Pseudomonas aeruginosa, UniProt P54292); assay: E. coli reporter gene antagonism assay, RhlR; format: cell-based
T1 construct: expressed in transfected cells; host or cells: E. coli JLD271
Procedure: (§1) Percent agonism of a given non-native inducer in a given bacterium and QS system receptor is measured with resepct to the maximum level of agonism (activation) by the native ligand of that receptor in the given bacterium. Percent antagonism is measured in competitive assays. The QS system of interest is activated to 100% with added or endogenous native ligand and the % antagonism of the non-native inducer is assessed with respect to 100% activation by the native inducer. The native ligand which induces LasR is OdDHL, which induces RhlR is BHL and which induces PqsR is PQS. As described herein and in cited references, assays for assessment of % agonism or % atangonism may be performed in E. coli systems (heterologous) or in the bacterium of interest, e.g., Pseudomonas. Dependent upon the assay system employed native ligand may be endogenously present or it may be exogenously supplied to the assay system. […] In antagonism assays using the native strains with functional QS systems, e.g., those of P. aeruginosa, endogenous native ligand is made in the system, so no native ligand is added. In native strains having one or more non-functional QS systems (mutant strains), e.g., P. aeruginosa mutants with non-functional QS systems, native ligand is added at about 10-100× the EC50 of the native ligand. In the agonism assay, native ligand is added as a control. Details of the assays are provided herein in Example 9 and in references cited in Example 9.

RhlR [2] = molecular target: T1, RhlR; assay: P. aeruginosa reporter assay, RhlR antagonism; format: cell-based
Procedure: P. aeruginosa reporter assays: Primary assays for RhlR activity in P. aeruginosa were performed as previously reported for LasR, [33] with the following modifications: OdDHL was added to the subculture to a final concentration of 100 nm immediately before it was dispensed into plates to induce expression of RhlR. For RhlR antagonism assays, synthetic ligand (100 mm) was screened against BHL at its EC50 (30 mm). For RhlR agonism assays, synthetic ligand (100 mm) was screened alongside and compared to BHL (at 900 mm) for the system. Dose-response reporter gene assays were performed according to these protocols by using various concentrations of compound.

LasR = molecular target: T2, LasR (Pseudomonas aeruginosa, UniProt P25084); assay: E. coli reporter gene primary antagonism assay, LasR; format: cell-based; details: compounds at 100 mm against 2 nm OdDHL; E. coli beta-galactosidase reporter strain JLD271/pJN105L/pSC11; untreated culture = 100%; negative values indicate receptor agonism; error ±10%
T2 construct: expressed in transfected cells; host or cells: E. coli JLD271
Procedure: as §1

P. aeruginosa (PAO1) [3] = assay: Pyocyanin assay; format: cell-based, Pseudomonas aeruginosa
Procedure: A. Pyocyanin Assay Protocol. The amount of pyocyanin in P. aeruginosa culture supernatants was measured following a reported protocol (O'Loughlin et al., 2013) with modifications. A 10 mL overnight culture of P. aeruginosa PAO1 was grown for 16 h. DMSO stock solutions of test compounds (20 mM) were prepared, and 10 μL or 5 μL aliquots were added to sterile 15 mL borosilicate glass test tubes. An inoculating culture was prepared by diluting the overnight culture 1:100 into freshly prepared assay medium (see above), and 2 mL aliquots of this subculture were added to each test tube (0.5% DMSO, final). The cultures were grown for 17 h, and the final cell density measured by reading OD600. Relative pyocyanin levels were measured by first pelleting 1.5 mL of well-mixed culture at 4,000 g for 10 min, transferring 200 μL of the resulting supernatant to a clear, plastic 96-well microtiter plate, and reading absorbance at 695 nm. Media background absorbance (measured from a “no bacteria” control) was subtracted, the resulting values growth normalized by dividing by the final OD600378, and the data plotted relative to a DMSO-treated positive control. B. Rhamnolipid Assay Protocol. Rhamnolipid was quantified following a reported protocol (Koch et al., 1991) with modifications. Assay cultures were prepared and grown in an identical manner to the pyocyanin assay above. Aliquots of the final culture supernatant (1 mL) were transferred to 1 dram glass vials and extracted twice with 1 mL diethyl ether. The pooled organic fractions were evaporated to dryness, and the resulting residue reconstituted in 200 μL de-ionized water. In a 1.7 mL plastic centrifuge tube, 50 μL of this extract was diluted into 450 μL of a solution of 0.19% (w/v) orcinol in 50% (v/v) concentrated H2SO4 (or 20 μL extract into 480 μL orcinol solution for cultures grown in MOPS Glucose medium). The tubes were vortexed thoroughly to mix and incubated in an 80° C. heating block for 30 min. After briefly cooling to room temperature, 200 μL of the resulting yellow to yellow-orange solution was transferred to a clear 96-well microtiter plate, and the absorbance at 421 nm measured. Media background absorbance (measured from a “no bacteria” control) was subtracted, the resulting values growth normalized by dividing by the final OD600, and the data plotted relative to a DMSO-treated positive control. C. Elastase B Assay Protocol. The amount of elastase B in P. aeruginosa culture supernatants was measured following a reported protocol (Geske et al., 2007) with modifications. Assay cultures were prepared and grown in an identical manner to the pyocyanin assay above. Aliquots of the final culture supernatant (50 μL) were added to the wells of a clear, plastic 96-well plate. To each well, 150 μL of 0.5% (w/v) elastin-congo red conjugate (Elastin Products Co.) in Tris buffer (10 mM Tris-HCl, 1 mM CaCl2, pH 7.2) was added. The plate was sealed with a polypropylene storage mat (Costar 3080) and incubated in a 37° C. shaking incubator (200 rpm) attached to a Labquake rotator for 12 h (for experiments in SCFM2) or 24 h (for experiments in MOPS medium). To quantify elastase B activity, the undigested elastin was pelleted by centrifugation of the assay plate at 1,500 g for 10 min, after which 100 μL of the supernatant was transferred to a new, clear 96-well plate, and the absorbance at 490 nm measured. Media background absorbance (measured from a “no bacteria” control) was subtracted, the resulting values growth normalized by dividing by the final OD600, and the data plotted relative to a DMSO-treated positive control.

P. aeruginosa (PAO1) [4] = assay: Rhamnolipid assay; format: cell-based, Pseudomonas aeruginosa; details: MOPS Glutamate and Glucose media, complete or iron/phosphate depleted, 17 h, 100 μM (compounds 1, 2, 3), 25 μM (compound 4), relative to DMSO
Procedure: (§2) A. Pyocyanin Assay Protocol. The amount of pyocyanin in P. aeruginosa culture supernatants was measured following a reported protocol (O'Loughlin et al., 2013) with modifications. A 10 mL overnight culture of P. aeruginosa PAO1 was grown for 16 h. DMSO stock solutions of test compounds (20 mM) were prepared, and 10 μL or 5 μL aliquots were added to sterile 15 mL borosilicate glass test tubes. An inoculating culture was prepared by diluting the overnight culture 1:100 into freshly prepared assay medium (see above), and 2 mL aliquots of this subculture were added to each test tube (0.5% DMSO, final). The cultures were grown for 17 h, and the final cell density measured by reading OD600. Relative pyocyanin levels were measured by first pelleting 1.5 mL of well-mixed culture at 4,000 g for 10 min, transferring 200 μL of the resulting supernatant to a clear, plastic 96-well microtiter plate, and reading absorbance at 695 nm. Media background absorbance (measured from a “no bacteria” control) was subtracted, the resulting values growth normalized by dividing by the final OD600378, and the data plotted relative to a DMSO-treated positive control. B. Rhamnolipid Assay Protocol. Rhamnolipid was quantified following a reported protocol (Koch et al., 1991) with modifications. Assay cultures were prepared and grown in an identical manner to the pyocyanin assay above. Aliquots of the final culture supernatant (1 mL) were transferred to 1 dram glass vials and extracted twice with 1 mL diethyl ether. The pooled organic fractions were evaporated to dryness, and the resulting residue reconstituted in 200 μL de-ionized water. […] After briefly cooling to room temperature, 200 μL of the resulting yellow to yellow-orange solution was transferred to a clear 96-well microtiter plate, and the absorbance at 421 nm measured. Media background absorbance (measured from a “no bacteria” control) was subtracted, the resulting values growth normalized by dividing by the final OD600, and the data plotted relative to a DMSO-treated positive control. […] The amount of elastase B in P. aeruginosa culture supernatants was measured following a reported protocol (Geske et al., 2007) with modifications. […] To quantify elastase B activity, the undigested elastin was pelleted by centrifugation of the assay plate at 1,500 g for 10 min, after which 100 μL of the supernatant was transferred to a new, clear 96-well plate, and the absorbance at 490 nm measured. Media background absorbance (measured from a “no bacteria” control) was subtracted, the resulting values growth normalized by dividing by the final OD600, and the data plotted relative to a DMSO-treated positive control.

P. aeruginosa (PAO1) [5] = assay: Elastase B assay; format: cell-based, Pseudomonas aeruginosa; details: MOPS Glutamate and Glucose media, complete or iron/phosphate depleted, 17 h, 100 μM (compounds 1, 2, 3), relative to DMSO
Procedure: as §2

QscR = QscR (Pseudomonas aeruginosa, UniProt G3XD77); format: cell-based; set-up: expressed in transfected cells; host or cells: E. coli JLD271; details: compounds at 100 mm against 15 nm OdDHL; E. coli reporter strain JLD271/pJN105Q/pSC11-Q; untreated culture = 100%; error ±10%
From the text: Construction of pSC11-Q: A 348 bp fragment spanning the upstream region of PA1897 (¢304 to +43 relative to the PA1897 translationalstart codon) was amplified from plasmid pJL101*by using primers 5′-GAATAT GGATCC TCTCTC CGCAGA TACCTG-3′ (BamHI site underlined) SEQ ID NO:5 and 5′-GCTATT GAATTC TGAAGA TGAATA GCGCCAC-3′ (EcoRI site underlined) SEQ ID NO:6. The PCR-generated fragment was digested with EcoRI and BamHI and subsequently ligated into EcoRI/BamHI-digested pPROBE-KT to generate pPROBE-KQ2. […] CGCC-3′ (BamHI site underlined) SEQ ID NO:8. The PCR-generated fragment was digested with SalI and BamHI and subsequently ligated into SalI/BamHI-digested pSC11 to generate pSC11-Q.
E. coli reporter gene assays: Primary assays for RhlR, LasR, and QscR activity in E. coli JLD271 reporter (beta-galactosidase) strains were performed as reported by Welsh et al. 2015, with the following modifications:
For all primary and dose-response antagonism assays, the concentration of native ligand utilized was approximately equal to its EC50 value in each bacterial reporter strain. For RhlR, LasR, and QscR primary antagonism assays, synthetic ligand (100 mm) was screened against BHL (10 mm), OdDHL (2 nm), and OdDHL (15 nm), respectively. For RhlR, LasR, and QscR primary agonism assays, synthetic compound (100 mm) was screened alongside and compared to the natural ligand (900 mm BHL or 100 mm OdDHL) for the receptor. As part of the beta-galactosidase assay protocol, plates to which CPRG substrate had been added were incubated at either 25° C. (LasR assay) or 30° C. (RhlR and QscR assays) until positive control wells developed a deep red color (10 min for LasR, 30 min for RhlR, and 60 min for QscR). Dose-response reporter gene assays were performed according to these protocols by using varying concentrations of compound.

T1 sequence (P54292 whole entry): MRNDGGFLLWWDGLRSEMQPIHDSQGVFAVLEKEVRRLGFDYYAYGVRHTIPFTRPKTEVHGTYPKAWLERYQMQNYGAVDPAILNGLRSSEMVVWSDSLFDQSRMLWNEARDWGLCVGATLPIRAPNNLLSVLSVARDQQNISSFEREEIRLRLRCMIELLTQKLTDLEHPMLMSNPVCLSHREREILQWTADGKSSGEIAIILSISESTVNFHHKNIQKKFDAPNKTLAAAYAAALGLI
Sequence of QscR (G3XD77 entry or part of it): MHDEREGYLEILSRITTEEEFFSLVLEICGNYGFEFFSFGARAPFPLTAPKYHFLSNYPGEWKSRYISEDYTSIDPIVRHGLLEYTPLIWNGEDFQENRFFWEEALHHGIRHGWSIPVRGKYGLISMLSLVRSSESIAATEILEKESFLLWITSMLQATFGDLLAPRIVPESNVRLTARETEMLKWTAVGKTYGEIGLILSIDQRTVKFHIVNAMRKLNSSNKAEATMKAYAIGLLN
T2 sequence (P25084 whole entry): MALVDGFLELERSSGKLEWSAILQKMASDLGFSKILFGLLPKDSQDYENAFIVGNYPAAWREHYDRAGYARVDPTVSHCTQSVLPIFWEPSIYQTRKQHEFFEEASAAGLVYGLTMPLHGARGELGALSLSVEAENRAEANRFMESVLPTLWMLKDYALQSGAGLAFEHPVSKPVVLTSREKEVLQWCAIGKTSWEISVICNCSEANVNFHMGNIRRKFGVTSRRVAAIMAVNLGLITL

Row | Structure (SMILES) | pIC50 (RhlR [1]) | pIC50 (RhlR [2]; IC50, antagonism, P. aeruginosa reporter, 95% CI: 19.6 μM-50.4 μM) | concentration blocking native ligand activity by 50%, relative to native ligand EC50 (RhlR [2]; IC50 in P. aeruginosa compared with EC50 of native RhlR ligand) | Inhibition [%] LasR (LasR) | pyocyanin production, single compound screens (P. aeruginosa (PAO1) [3]; MOPS Glutamate and Glucose media, complete or iron/phosphate depleted, 17 h, 100 μM (compounds 1, 2, 3), 25 μM (compound 4), relative to DMSO) | pyocyanin production in SCFM2, single compound (P. aeruginosa (PAO1) [3]; SCFM2, 17 h, 100 μM compound 2 alone) | rhamnolipid production, single compound screens (P. aeruginosa (PAO1) [4]) | elastase B production, single compound screens (P. aeruginosa (PAO1) [5]) | Inhibition [%] QsCR (QscR)
1 | O=C(COc1ccc(I)cc1)N[C@H]1CCSC1=O [RN22] | 4.71 | 4.50 and 4.51 | less than 4 fold |  |  |  |  |  | 
2 | O=C(COc1ccc(I)cc1)N[C@H]1CCOC1=O [compound 2] |  |  |  | −9% | strong pyocyanin inhibition, unless phosphate concentrations were low | did not attenuate pyocyanin | little to no effect | little to no effect | 18%
